{"source": "patent US20240325544A1", "about": "“CATIONIC LIPID FOR COVALENT MODIFICATION OF PEPTIDES” (PharmalN Corporation, priority 2023, published 2024)", "biological_target": "T1, human NPRC (Homo sapiens, UniProt P17342)", "T1 construct": "NPRC Q1-S434, (GenBank Accn. #NP_001191304.1); made in house; host or cells: Expi293 cells", "T1 sequence (P17342 43-476 limits assumed)": "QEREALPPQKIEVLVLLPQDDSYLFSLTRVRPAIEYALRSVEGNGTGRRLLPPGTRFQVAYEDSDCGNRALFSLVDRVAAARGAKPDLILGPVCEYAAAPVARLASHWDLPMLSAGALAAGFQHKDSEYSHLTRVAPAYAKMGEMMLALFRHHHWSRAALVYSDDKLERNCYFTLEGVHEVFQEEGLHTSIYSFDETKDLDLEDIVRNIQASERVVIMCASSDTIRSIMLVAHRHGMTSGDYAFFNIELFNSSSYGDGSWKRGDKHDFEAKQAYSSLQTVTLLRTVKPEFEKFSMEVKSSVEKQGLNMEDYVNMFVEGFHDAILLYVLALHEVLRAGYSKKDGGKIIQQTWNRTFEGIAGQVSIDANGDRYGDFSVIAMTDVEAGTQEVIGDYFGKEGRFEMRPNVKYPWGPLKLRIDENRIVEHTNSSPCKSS", "test": "Fluorescence polarization (FP) assay with CNP-F* probe, NPRC", "format": "binding", "conditions": "150 nM test article, 5 nM CNP-F*, 50 nM human NPRC", "description": "Error bars represent standard error of the mean. […] NO.\nIn the presence of [SEQ ID.\nThe CNP-F* probe was incubated at a final concentration of 5 nM in the presence of 50 nM human NPRB or NPRC in an assay buffer containing PBS, pH 7.4 and 0.01% Triton X-100. A […] volume of CNP-F* probe and NPR were dispensed into a black 96-well Costar flat-bottom polystyrene plate prior to FP measurement. Next, […] volume of SEQ ID. No. 31 (final concentration 150 nM) was added to the premixed probe and NPR. The plate was incubated at room temperature for 10 min. Fluorescence polarization was then measured on Flexstation 3 (excitation wavelength: 480 nm; emission wavelength: 525 nm and cutoff at 515 nm).\nCNP-F* was prepared using solid phase peptide synthesis. […] Next, the crude linear peptide was cleavage with 95% TFA in the presence of carbocation scavengers and ether precipitation.", "note": "Bridge positions count the residues as written; N and C are the ends. Square brackets hold non-standard residues; d marks the D form. Peptide text beside a SMILES is read from it. * marks the point of attachment. Palmitoyl = CCCCCCCCCCCCCCCC(=O)*; Dap = NC[C@H](N)C(=O)O; AEEA = NCCOCCOCC(=O)O", "data": [{"smiles": "CCCCCCCCCCCCCCCC(=O)NCCOCCOCC(=O)NCCOCCOCC(=O)NCCOCCOCC(=O)N[C@@H](CN)C(=O)N[C@@H](CN)C(=O)NCC(=O)N[C@@H](CC(C)C)C(=O)N[C@@H](CO)C(=O)N[C@@H](CCCCN)C(=O)NCC(=O)N[C@H]1CSSC[C@@H](C(=O)O)NC(=O)CNC(=O)[C@H](CC(C)C)NC(=O)CNC(=O)[C@H](CO)NC(=O)[C@H](CCC(N)=O)NC(=O)[C@H](CO)NC(=O)CNC(=O)[C@H]([C@@H](C)CC)NC(=O)[C@H](CCCNC(=N)N)NC(=O)[C@H](CC(=O)O)NC(=O)[C@H](CC(C)C)NC(=O)[C@H](CCCCN)NC(=O)[C@H](CC(C)C)NC(=O)CNC(=O)[C@H](Cc2ccccc2)NC1=O", "note": "[SEQ ID NO: 31] ({Palmitoyl-AEEA-AEEA-AEEA}-[Dap][Dap]GLSKGCFGLKLDRIGSQSGLGC-OH; disulfide 8-24; C-terminus assumed)", "values": [{"measurement": "Binding to NPRC (FP signal of CNP-F* probe)", "result": "low FP signal demonstrates binding"}]}]}
